# Experimental data published in patent US20260240878A1, “PTP1B/TC-PTP DUAL INHIBITORS AND PROTEIN DEGRADERS” (Purdue Research Foundation, priority 2023, published 2026).
# Like-named read-outs stand apart in the source and are kept apart here. Where a SMILES comes first, the peptide text is derived from it. [ ]: non-standard residue; d: D form. The star is where a group is joined. F2Pmp = N[C@@H](Cc1ccc(C(F)(F)P(=O)(O)O)cc1)C(=O)O; Phenylacetyl(4-OH,3-OMe) = COc1cc(CC(=O)*)ccc1O; Benzoyl(3-Br,4-Me) = Cc1ccc(C(=O)*)cc1Br; X1 = Cc1ncsc1-c1ccc([C@H](C)N*)cc1; Hyp = O=C(O)[C@@H]1C[C@@H](O)CN1; Tle = CC(C)(C)[C@H](N)C(=O)O; PEG1 = NCCOCCC(=O)O
# Columns and labels:
# PTP1B [1] = target: T1, PTP1B (Homo sapiens, UniProt P18031); experiment: FP-based library screening (fluorescence polarization displacement); assay type: binding
# T1 sequence (P18031 1-435): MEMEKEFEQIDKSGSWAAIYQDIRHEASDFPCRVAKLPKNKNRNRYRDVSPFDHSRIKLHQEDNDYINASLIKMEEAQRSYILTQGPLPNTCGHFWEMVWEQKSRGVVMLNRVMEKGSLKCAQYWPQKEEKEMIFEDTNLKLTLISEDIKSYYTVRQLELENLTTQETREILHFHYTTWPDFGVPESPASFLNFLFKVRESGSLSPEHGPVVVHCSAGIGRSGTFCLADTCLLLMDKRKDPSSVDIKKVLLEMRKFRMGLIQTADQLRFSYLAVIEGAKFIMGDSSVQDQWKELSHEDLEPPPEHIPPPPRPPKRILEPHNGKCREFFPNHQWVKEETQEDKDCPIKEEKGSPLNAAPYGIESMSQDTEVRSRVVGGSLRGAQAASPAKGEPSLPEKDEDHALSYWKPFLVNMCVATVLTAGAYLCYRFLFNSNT
# Method: (§1) The library screening assay was carried out on a Tecan Genesis workstation with a 96-channel tip block with fixed tips. Before the screening, the library compounds were diluted from the DMSO stock solution into 3,3-dimethylglutarate buffer (50 mM 3,3-dimethylglutarate buffer, pH 7.0, containing 1 mM EDTA with an ionic strength of 0.15 M adjusted by addition of NaCl), resulting in a set of six daughter plates with an ~75 nM concentration of each compound in each well. In the first screen, PTP1B or TCPTP (2 μM in 50 mM 3,3-dimethylglutarate buffer, 50 μL, pH 7.0, containing 1 mM EDTA with an ionic strength of 0.15 M adjusted by addition of NaCl) was dispensed into each well of a 384-well plate, and then 2 μL of the fluorescein-tagged library compounds were transferred from four 96-well intermediate plates to the 384-well plate (final compound concentration ~3 nM). The fluorescence polarization values (A1) were recorded on an Envision 2021 Multilabel Microplate Reader (Perkin-Elmer). In the second screen, 50 μL of a mixture of 2 μM PTP1B or TCPTP and 500 μM Fmoc-F2Pmp-OH (as a competitive ligand) in 3,3-dimethylglutarate buffer (50 mM 3,3-dimethylglutarate buffer, pH 7.0, containing 1 mM EDTA with an ionic strength of 0.15 M adjusted by addition of NaCl) were dispensed into each well of another 384-well plate, followed by the addition of 2 μL of the fluorescein tagged library compounds (75 nM in 3,3-dimethylglutarate buffer, pH 7.0, containing 1 mM EDTA with an ionic strength of 0.15 M adjusted by addition of NaCl). The fluorescence polarization values (A2) were again measured. A displacement percentage was calculated for each library compound as (A1−A2)/(A1−A0)×100%, where A1 and A2 are the fluorescence anisotropy values of each sample as described, and A0 is the fluorescence anisotropy of free library compounds in 3,3-dimethylglutarate buffer. To simplify the calculation, A0 was set to 30. The binding affinity ranking of each compound was determined on the displacement percentage: the […] the displacement percentage, the higher the binding affinity.
# (§2) The library was screened using the same protocol as the library 1, except that 0.5 μM PTP1BB/TC-PTP and 1.5 mM competitive ligand Fmoc-F2Pmp-OH were used.
# (§3) The library was screened using the same protocol as the library 1, except that 0.5 μM PTP1B/TC-PTP and 5 μM ((4-((S)-2-((S)-2-acetamido-3-phenylpropanamido)-3-(((S)-1-amino-6-(3-bromo-4-methylbenzamido)-1-oxohexan-2-yl)amino)-3-oxopropyl)phenyl)difluoromethyl)phosphonic acid (as a competitor) were used.
# TC-PTP [2] = target: T2, TC-PTP (Homo sapiens, UniProt P17706); experiment: as above; assay type: binding
# T2 sequence (P17706 1-415): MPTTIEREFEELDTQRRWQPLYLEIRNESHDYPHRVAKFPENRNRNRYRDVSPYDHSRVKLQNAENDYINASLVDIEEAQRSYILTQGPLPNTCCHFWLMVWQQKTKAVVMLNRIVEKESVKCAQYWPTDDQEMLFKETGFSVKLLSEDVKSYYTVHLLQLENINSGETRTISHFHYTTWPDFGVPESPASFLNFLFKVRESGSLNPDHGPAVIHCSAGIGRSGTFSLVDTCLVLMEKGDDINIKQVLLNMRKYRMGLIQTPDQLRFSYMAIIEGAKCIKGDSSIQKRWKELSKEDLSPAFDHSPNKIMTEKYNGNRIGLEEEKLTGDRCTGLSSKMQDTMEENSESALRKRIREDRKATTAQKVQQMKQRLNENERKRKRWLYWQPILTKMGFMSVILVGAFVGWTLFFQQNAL
# Method: as §1, §2, §3
# PTP1B [3] = target: T1, PTP1B; experiment: PTP activity assay with pNPP substrate (IC50, Ki, mode of inhibition); assay type: biochemical
# Method: (§4) PTP activity was assayed using p-nitrophenyl phosphate (pNPP) as a substrate in DMG buffer (50 mM DMG. pH 7.0, 1 mM EDTA, 150 mM NaCl, 2 mM DTT, 0.1 mg/mL BSA) at 25° C. The assays were performed in 96-well plates. Normally, to determine the IC50 values, the reaction was initiated by the addition of enzyme (for PTP1B and TCPTP, the final concentration was 0.4 nM, for other PTPs, the final concentration was 10 nM) to a reaction mixture (0.2 mL) containing 2 mM (Km for the substrate) pNPP with various concentrations of inhibitors (see FIG. 1). The reaction rate was measured using a SpectraMax Plus 384 Microplate Spectrophotometer (Molecular Devices). Data were fitted using SigmaPlot Enzyme Kinetics Module (Systat Software, Inc.). To determine the mode of inhibition, the reactions were initiated by the addition of enzyme (final concentration for TC-PTP and PTP1B was 0.4 nM) to the reaction mixtures (0.2 mL) containing various concentrations of pNPP with different concentrations of the inhibitor. Data were fitted using SigmaPlot Enzyme Kinetics Module (Systat Software. Inc.).
# TC-PTP [4] = target: T2, TC-PTP; experiment: as above; assay type: biochemical
# Method: as §4
# PTP1B [5] = target: T1, PTP1B; experiment: Degradation assay in HEK293 cells (immunoblotting); assay type: cell-based; design: endogenous in cells; host or cells: HEK293; conditions: 0.2 μM degrader, 16 hours
# Method: (§5) HEK293. MIAPaCa-2, HepG2, U2OS, H116, MEF, B16F10, and MC38 cells, were grown in DMEM, while Jurkat and H358 cells were grown in RPMI 1640 supplemented with 10% fetal bovine serum, penicillin (50 units/mL), and streptomycin (50 μg/mL) in a 37° C. incubator containing 5% CO2. 20 ng/ml human (Biolegend #713906) or mouse (Biolegend #714006) Interferon-γ were used for JAK/STAT pathway stimulation.
# (§6) Tissues or cultured cells were lysed with ice-cold lysis buffer (50 mM Tris (pH 8.0, 150 mM NaCl, 10% Glycerol, 1% Triton-X-100) supplied with phosphatase inhibitor (Bimake) and protease inhibitor mixture (Roche Applied Science). Equal amounts of protein were resolved by SDS-PAGE, transferred to nitrocellulose membrane, and subjected to immunoblotting. Antibodies used in this study include anti-following proteins: pSTAT1^Tyr701 (Cell Signaling Technology #9167, 1:3000), GAPDH (Cell Signaling Technology #97166, 1:5000), pJAK1^Tyr1034/1035 (Cell Signaling Technology #74129, 1:1000), pJAK2^Tyr1007/1008 (Cell Signaling Technology #3776, 1:1000), TC-PTP (Abcam #ab180764, 1:3000). PTP1B (Abcam #ab244207, 1:1500).
# (§7) Degradation assay was conducted in HEK293 cells with 1 μM degrader and 24 hours incubation.
# (§8) The degradation assay was conducted in HEK293 cells with 0.2 μM degrader and 16 hours incubation.
# TC-PTP [6] = target: T2, TC-PTP; experiment: Degradation assay in HEK293 cells (immunoblotting); assay type: cell-based; design: endogenous in cells; host or cells: HEK293; conditions: 0.2 μM degrader, 16 hours, read-out: % Protein Degradation TC-PTP
# Method: as §5, §6, §7, §8
# [7] = library 3, 0.5 μM enzyme, 5 μM Example 6 compound as competitor
# [8] = library 2, 0.5 μM enzyme, 1.5 mM Fmoc-F2Pmp-OH
# [9] = library 1, 2 μM PTP1B, 500 μM Fmoc-F2Pmp-OH competitive ligand, smaller = higher affinity
# [10] = library 1, 2 μM TCPTP, 500 μM Fmoc-F2Pmp-OH competitive ligand, smaller = higher affinity
compound,measurement,setting,value
2-(3-fluoro-4- hydroxyphenyl)acetic acid,"Displacement %, PTP1B",PTP1B [1]; [7],72%
same,"Displacement %, TC-PTP",TC-PTP [2]; [7],75%
2-(4-chloro-2- methylphenoxy)acetic acid,"Displacement %, PTP1B",PTP1B [1]; [8],57%
same,"Displacement %, TC-PTP",TC-PTP [2]; [8],55%
3-bromo-4- methylbenzoic acid,"Displacement %, PTP1B",PTP1B [1]; [9],34%
same,"Displacement %, TC-PTP",TC-PTP [2]; [10],39%
"COc1cc(CC(=O)N[C@@H](Cc2ccccc2)C(=O)N[C@@H](Cc2ccc(C(F)(F)P(=O)(O)O)cc2)C(=O)N[C@@H](CCCCNC(=O)c2ccc(C)c(Br)c2)C(=O)NCc2ccccc2CCC(=O)N[C@H](C(=O)N2C[C@H](O)C[C@H]2C(=O)NCc2ccc(-c3scnc3C)cc2)C(C)(C)C)ccc1O (stereo in doubt) [Compound 40, ((4-((S)-3-(((S)-6-(3-bromo-4-methylbenzamido)-1-((2-(3-(((S)-1-((2S,4R)-4-hydroxy-2-((4-(4-methylthiazol-5-yl)benzyl)carbamoyl)pyrrolidin-1-yl)-3,3-dimenthyl-1-oxobutan-2-yl)amino)-3-oxopropyl)benzyl)amino)-1-oxohexan-2-yl)amino)-2-((S)-2-(2-(4-hydroxy-3-methoxyphenyl)acetamido)-3-phenylpropanamido)-3-oxopropyl)phenyl)difluoromethyl)phosphonic Acid]",IC50,PTP1B [3],3.8 ± 0.4 nM
same,IC50,TC-PTP [4],2.9 ± 0.5 nM
same,% Protein Degradation PTP1B,PTP1B [5],16%
same,percent TC-PTP degradation at 0.2 µM,TC-PTP [6],0%
CN(C)c1ccc(CC(=O)O)cc1 [2-(4-(dimethylamino)phenyl) acetic acid],"Displacement %, PTP1B",PTP1B [1]; [7],81%
same,"Displacement %, TC-PTP",TC-PTP [2]; [7],79%
O=C(O)Cc1ccc(Br)cc1 [2-(4-bromophenyl)acetic acid],"Displacement %, PTP1B",PTP1B [1]; [7],77%
same,"Displacement %, TC-PTP",TC-PTP [2]; [7],77%
COc1cc(CC(=O)O)ccc1O [2-(4-hydroxy-3-methoxyphenyl)acetic acid],"Displacement %, PTP1B",PTP1B [1]; [7],51%
same,"Displacement %, TC-PTP",TC-PTP [2]; [7],54%
O=C(O)Cc1ccc(O)cc1 [2-(4-hydroxyphenyl)acetic acid],"Displacement %, PTP1B",PTP1B [1]; [7],66%
same,"Displacement %, TC-PTP",TC-PTP [2]; [7],62%
Cc1ccc(CCC(=O)O)cc1 [3-(p-tolyl)propanoic acid],"Displacement %, PTP1B",PTP1B [1]; [8],47%
same,"Displacement %, TC-PTP",TC-PTP [2]; [8],53%
COc1ccc(C(=O)O)cc1F [3-fluoro-4-methoxybenzoic acid],"Displacement %, PTP1B",PTP1B [1]; [9],57%
same,"Displacement %, TC-PTP",TC-PTP [2]; [10],54%
COc1cc(C(=O)O)ccc1[N+](=O)[O-] [3-methoxy-4-nitrobenzoic acid],"Displacement %, PTP1B",PTP1B [1]; [9],41%
same,"Displacement %, TC-PTP",TC-PTP [2]; [10],40%
O=C(O)c1ccsc1 [3-thiophenecarboxylic acid],"Displacement %, PTP1B",PTP1B [1]; [9],45%
same,"Displacement %, TC-PTP",TC-PTP [2]; [10],51%
O=C(O)c1ccc(F)cc1 [4-fluorobenzoic acid],"Displacement %, PTP1B",PTP1B [1]; [9],44%
same,"Displacement %, TC-PTP",TC-PTP [2]; [10],46%
CCOC(=O)N[C@@H](Cc1ccccc1)C(=O)O [(ethoxycarbonyl)-L- phenylalanine],"Displacement %, PTP1B",PTP1B [1]; [8],44%
same,"Displacement %, TC-PTP",TC-PTP [2]; [8],41%
"COc1cc(CC(=O)N[C@@H](Cc2ccccc2)C(=O)N[C@@H](Cc2ccc(C(F)(F)P(=O)(O)O)cc2)C(=O)N[C@@H](CCCCNC(=O)c2ccc(C)c(Br)c2)C(=O)NCCOCCC(=O)N[C@H](C(=O)N2C[C@H](O)C[C@H]2C(=O)N[C@@H](C)c2ccc(-c3scnc3C)cc2)C(C)(C)C)ccc1O [Compound 27, ((4-((2S,5S,15S)-5-(4-(3-bromo-4-methylbenzamido)butyl)-15-((2S,4R)-4-hydroxy-2-(((S)-1-(4-(4-methylthiazol-5-yl)phenyl)ethyl)carbamoyl)pyrrolidine-1-carbonyl)-2-((S)-2-(2-(4-hydroxy-3-methoxyphenyl)acetamido)-3-phenylpropanamido)-16,16-dimethyl-3,6,13-trioxo-10-oxa-4,7,14-triazaheptadecyl)phenyl)difluoromethyl)phosphonic Acid] ({Phenylacetyl(4-OH,3-OMe)}-F[F2Pmp]K(Benzoyl(3-Br,4-Me))[PEG1][Tle][Hyp]-X1)",IC50,"PTP1B [3]; pNPP 2 mM, pH 7.0, 25° C., read-out: IC50, nM PTP1B",15.5 ± 2.1 nM
same,IC50,"TC-PTP [4]; pNPP 2 mM, pH 7.0, 25° C., read-out: IC50, nM TC-PTP",6.7 ± 2 nM
same,% Protein Degradation PTP1B,PTP1B [5],75%
same,percent TC-PTP degradation at 0.2 µM,TC-PTP [6],63%
CC(=O)N[C@@H](Cc1ccccc1)C(=O)O [acetyl-L-phenylalanine],"Displacement %, PTP1B",PTP1B [1]; [8],37%
same,"Displacement %, TC-PTP",TC-PTP [2]; [8],41%
(S)-2-acetamido-3-(4- fluorophenyl)propanoic acid,"Displacement %, PTP1B",PTP1B [1]; [8],45%
same,"Displacement %, TC-PTP",TC-PTP [2]; [8],45%
